# Assay results from patent publication US20120232049A1, “PYRIDINE OR PYRIMIDINE DERIVATIVE HAVING EXCELLENT CELL GROWTH INHIBITION EFFECT AND EXCELLENT ANTI-TUMOR EFFECT ON CELL STRAIN HAVING AMPLIFICATION OF HGFR GENE” (Eisai R&D Management Co., Ltd., priority 2007, published 2012).
# Legend:
# [1] = test system: EBC-1 (human lung cancer cells); assay: Proliferation inhibitory effect against human cancer cells, EBC-1; format: cell-based; conditions: EBC-1, 72 h, c-met amplified cell, 3 days, Cell Counting Kit-8
# Method: (§1) Six kinds of human cancer cells are suspended in RPMI1640 medium (purchased from Sigma) containing 10% FBS, respectively. The cell suspensions (MKN-45: 1.5×10^4 cells/ml, SNU-5: 5×10^4 cells/ml, EBC-1: 3×10^4 cells/ml, MKN-74: 2.5×10^4 cells/ml, SNU-1: 2.5×10^4 cells/ml, A549: 1.5×10^4 cells/ml) were added to a cell culture 96-well plate (purchased from NUNC, product number: 167008) at 0.1 ml/well, and cultured overnight in a 5% CO2 incubator (37° C.). After the culture, 0.1 ml of a test substance diluted with RPMI1640 medium containing 10% FBS and the culture was continued for 3 days in a 5% CO2 incubator (37° C.). After the culture, 10 μl of Cell Counting Kit-8 (purchased from DOJINDO, product number: 343-07623) was added to each well and the incubation was performed for 0.5 to 3 hours in a 5% CO2 incubator (37° C.). After the incubation, absorbance of each well was measured by a plate reader MTP-500 (Corona Electric Co., Ltd.) with measurement wavelength 450 nm and reference wavelength 660 nm.
# [2] = test system: SNU-5 (human gastric cancer cells); assay: Proliferation inhibitory effect against human cancer cells, SNU-5; format: cell-based; conditions: SNU-5, 72 h, c-met amplified cell, 3 days, Cell Counting Kit-8
# Method: as §1
# [3] = test system: Human gastric cancer cells (MKN-45); assay: Tumor proliferation inhibitory effect against human cancer cells (MKN-45), subcutaneous transplant; format: in vivo, BALB/c(nu/nu) mice; conditions: orally twice a day, fifth day
# Method: Human gastric cancer cells (MKN-45) were suspended in HBSS (purchased from GIBCO BRL). The cell suspension (5×10^7 cells/ml; 0.1 ml) was transplanted to the subcutaneous parts of the right flank of 7-week female BALB/c(nu/nu) mice. When the tumor volume reached 100-200 mm^3, mice were grouped so that the average of the tumor volume was equable in each group, and 0.5% methylcellulose in hydrochloric acid-glucose solution (0.1N hydrochloric acid:5% glucose solution=1:9) or a test substance suspended in dimethylsulfoxide-Tween-glucose solution (dimethylsulfoxide:Tween:5% glucose solution (containing equimolar hydrochloric acid of the test substance)=7:13:80) was orally administered to mice daily twice a day. The tumor volume was measured on the fifth day from the administration of the test substance. The long and short diameters of the tumor were measured with a caliper and the tumor volume was calculated according to the equation: 1/2×long diameter×short diameter×short diameter. The experiment was conducted in a control group (vehicle administered group) of 10 animals as well as in the test substance administered group of 5 animals. Tumor proliferation rate (%) was defined as the ration of the tumor volume of the test substance administered group to the tumor volume of control group and shown in table 9
# [4] = test system: MKN-45 (human gastric cancer cells); assay: Proliferation inhibitory effect against human cancer cells, MKN-45; format: cell-based; conditions: MKN-45, 72 h, c-met amplified cell, 3 days, Cell Counting Kit-8
# Method: as §1
# [5] = test system: SNU-1 (human gastric cancer cells); assay: Proliferation inhibitory effect against human cancer cells, SNU-1; format: cell-based; conditions: SNU1, 72 h, c-met non-amplified cell, 3 days, Cell Counting Kit-8
# Method: as §1
# [6] = test system: MKN-74 (human gastric cancer cells); assay: Proliferation inhibitory effect against human cancer cells, MKN-74; format: cell-based; conditions: MKN-74, 72 h, c-met non-amplified cell, 3 days, Cell Counting Kit-8
# Method: as §1
# [7] = test system: A549 (human lung cancer cells); assay: Proliferation inhibitory effect against human cancer cells, A549; format: cell-based; conditions: A549, 72 h, c-met non-amplified cell, 3 days, Cell Counting Kit-8
# Method: as §1
# [8] = 100 mg/kg weight/administration
# [9] = 12.5 mg/kg weight/administration
IC50 [1] [nM],IC50 [2] [nM],IC50 [4] [nM],IC50 [5] [nM],IC50 [6] [µM],IC50 [7] [nM],Compound,tumor proliferation rate(%) ([3]; 30 mg/kg weight/administration),"tumor proliferation rate(%) [3, 8] [%]","tumor proliferation rate(%) [3, 9] [%]",tumor proliferation rate(%) ([3]; 1 mg/kg weight/administration),tumor proliferation rate(%) ([3]; 3 mg/kg weight/administration),tumor proliferation rate(%) ([3]; 10 mg/kg weight/administration)
17,6.2,15,4200,4.3,2600,"CN1CCN(C2CCN(C(=O)Nc3cc(Oc4ccc(NC(=O)C5(C(=O)Nc6ccc(F)cc6)CC5)c(F)c4)ccn3)CC2)CC1 [Example 15, N-(2-Fluoro-4-{[2-({[4-(4-methylpiperazin-1-yl)piperidin-1-yl]carbonyl}amino)pyridin-4-yl]oxy}phenyl)-N-(4-fluorophenyl)cyclopropane-1,1-dicarboxamide]",29.7,19.9,–,–,–,–
65,38,60,> 10000,4.2,> 10000,"O=C(Nc1cc(Oc2ccc(NC(=O)C3(C(=O)Nc4ccc(F)cc4)CC3)c(F)c2)ccn1)N1CCC1 [Example 61, N-[4-({2-[(Azetidin-1-ylcarbonyl)amino]pyridin-4-yl}oxy)-2-fluorophenyl]-N′-(4-fluorophenyl)cyclopropane-1,1-dicarboxamide]",–,–,35.8,–,–,–
6.4,6,6,2000,3,1900,"O=C(Nc1cc(Oc2cc(F)c(NC(=O)C3(C(=O)Nc4ccc(F)cc4)CC3)cc2F)ccn1)N1CC(O)C1 [Example 91, N-{2,5-Difluoro-4-[(2-{([3-hydroxyazetidin-1-yl)carbonyl]amino}pyridin-4-yl)oxy]phenyl}-N′-(4-fluorophenyl)cyclopropane-1,1-dicarboxamide]",19.6,16.0,22.9,73.0,55.5,27.4
3.8,1.7,3.8,2300,2,2900,"CN1CCN(C2CCN(C(=O)Nc3cc(Oc4cc(F)c(NC(=O)C5(C(=O)Nc6ccc(F)cc6)CC5)cc4F)ccn3)CC2)CC1 [Example 92, N-(2,5-Difluoro-4-{[2-({[4-(4-methylpiperazin-1-yl)piperidin-1-yl]carbonyl}amino)pyridin-4-yl]oxy}phenyl)-N′-(4-fluorophenyl)cyclopropane-1,1-dicarboxamide]",–,–,27.9,–,–,–
2.4,1.7,2.3,1600,1.9,1800,"CN1CCC(N(C)C(=O)Nc2cc(Oc3cc(F)c(NC(=O)C4(C(=O)Nc5ccc(F)cc5)CC4)cc3F)ccn2)CC1 [Example 94, N-(2,5-Difluoro-4-{[2-({[methyl(1-methylpiperidin-4-yl)amino]carbonyl}amino)pyridin-4-yl]oxy}phenyl)-N′-(4-fluorophenyl)cyclopropane-1,1-dicarboxamide]",–,–,–,–,–,–
4.5,4.9,4.7,3600,3.3,2000,"O=C(Nc1cc(Oc2cc(F)c(NC(=O)C3(C(=O)Nc4ccc(F)cc4)CC3)cc2F)ccn1)N1CC(CO)C1 [Example 96, N-(2,5-Difluoro-4-{[2-({[3-(hydroxymethyl)azetidin-1-yl]carbonyl}amino)pyridin-4-yl]oxy}phenyl)-N′-(4-fluorophenyl)cyclopropane-1,1-dicarboxamide]",–,–,–,–,–,–
